According to patent US11911388B2, “Treatment for diabetes in patients with insufficient glycemic control despite therapy with an oral or non-oral antidiabetic drug” (Boehringer Ingelheim International GmbH, priority 2008, dated 2024):
“Also recorded” adds a separate entry of the source.

Experiments:
db/db mice [1] = experiment: HbA1c and blood glucose after 54 day treatment of db/db mice (SU secondary drug failure model); format: in vivo, mouse; conditions: 3 mg/kg p.o. daily, day 54, female db/db mice; for glucose values compared to control: semi-fed
Source text: Sulfonylurea (SU) like glibenclamide are one of the most frequently used drugs in diabetes treatment. Long-term treatment with SU causes elevated basal insulin secretion and decreased glucose-stimulated insulin secretion. These characteristics may play an important role for the development of hypoglycemia and secondary drug failure. […] In addition, correlating with age of the animals pancreatic β-cells of aging db/db mice fails to compensate the high glucose excursion with enhanced insulin secretion. Therefore this model is appropriate to study the glibenclamide induced secondary drug failure in comparison to a DPP-4 inhibitor (e.g. BI 1356). Female db/db mice at 5 weeks of age, are obtained from Charles River, Germany. Animals are housed in groups of 5-6 animals under a 12:[…] cycle (lights on at 04:00 AM and lights off at 04:00 PM) in temperature and humidity controlled rooms. All animals have free access to regular rodent chow (Altromin standard #1324 chow, Denmark) and water ad libitum. The compound solutions are administered daily at 08.00 AM on experimental days 0-59 by per oral gavage using a gastric tube connected to a 3 ml syringe (Luer-lockTM, Becton). Groups of 12 animals are used: vehicle, 0.5% Natrosol; BI 1356 3 mg/kg; glibenclamide 3 mg/kg. Body weight food intake and water intake is recorded daily for the first two and twice weekly for the remaining period. On experimental day 54 blood glucose and HbA1c levels are determined in semi-fed state, on day 59 an OGTT (2 g/kg) is performed. Blood samples for determination of “fed” levels blood glucose and HbA1c are performed at 10.00 AM on day 54. Prior to blood sampling animals are transferred to clean cages with no food two hours before blood sampling. At day 59 an OGTT (2 g/kg) is performed following an over-night fast of the animals and insulin is detected at t=15 min. For each data point, 10 μl blood is drawn from the tip of the tail into a microcapillary tube and measured using a Biosen S line glucose analyzer. HbA1c: are measured using a standard enzyme assay kit on a fully automated analyzer (Bayer).

db/db mice [2] = experiment: Insulin during OGTT (2 g/kg) on day 59 in db/db mice; format: in vivo, mouse; conditions: 3 mg/kg p.o. daily, day 59, OGTT 2 g/kg, t=15 min
Source text: Sulfonylurea (SU) like glibenclamide are one of the most frequently used drugs in diabetes treatment. Long-term treatment with SU causes elevated basal insulin secretion and decreased glucose-stimulated insulin secretion. These characteristics may play an important role for the development of hypoglycemia and secondary drug failure. […] In addition, correlating with age of the animals pancreatic β-cells of aging db/db mice fails to compensate the high glucose excursion with enhanced insulin secretion. Therefore this model is appropriate to study the glibenclamide induced secondary drug failure in comparison to a DPP-4 inhibitor (e.g. BI 1356).
Female db/db mice at 5 weeks of age, are obtained from Charles River, Germany. […]
The compound solutions are administered daily at 08.00 AM on experimental days 0-59 by per oral gavage using a gastric tube connected to a 3 ml syringe (Luer-lock™, Becton). […] Body weight food intake and water intake is recorded daily for the first two and twice weekly for the remaining period. On experimental day 54 blood glucose and HbA1c levels are determined in semi-fed state, on day 59 an OGTT (2 g/kg) is performed.
Blood samples for determination of “fed” levels blood glucose and HbA1c are performed at 10.00 AM on day 54. […] At day 59 an OGTT (2 g/kg) is performed following an over-night fast of the animals and insulin is detected at t=15 min. […]

| Structure (SMILES) | HbA1c compared to control (db/db mice [1]) | glucose values compared to control (db/db mice [1]) | form and route of excretion (human, in vivo) | excretion via the kidney (therapeutic oral dose levels) | increase in insulin during OGTT (db/db mice [2]) |
| --- | --- | --- | --- | --- | --- |
| COc1ccc(Cl)cc1C(=O)NCCc1ccc(S(=O)(=O)NC(=O)NC2CCCCC2)cc1 [glibenclamide, reference compound] | impairs | impairs | – | – | – |
| CC#CCn1c(N2CCC[C@@H](N)C2)nc2c1c(=O)n(Cc1nc(C)c3ccccc3n1)c(=O)n2C [BI 1356] | improves; also recorded: superior to glibenclamide | improves; also recorded: superior to glibenclamide | primarily excreted unchanged via the bile | < 7 % of the administered oral dose | able to respond to the increased glucose levels with an up-regulation of insulin; also recorded: superior to glibenclamide |
